inhibition, Activity and IC50 data for 15 compounds are collected here from ChEMBL document CHEMBL1138276, “Discovery of small-molecule inhibitors of tyrosinase” (Bioorg Med Chem Lett, 2007).

SMILES strings stand for the structures.

Experiment [1] concerns the target T1, Tyrosinase (Agaricus bisporus) (UniProt O42713).
T1 sequence (whole entry): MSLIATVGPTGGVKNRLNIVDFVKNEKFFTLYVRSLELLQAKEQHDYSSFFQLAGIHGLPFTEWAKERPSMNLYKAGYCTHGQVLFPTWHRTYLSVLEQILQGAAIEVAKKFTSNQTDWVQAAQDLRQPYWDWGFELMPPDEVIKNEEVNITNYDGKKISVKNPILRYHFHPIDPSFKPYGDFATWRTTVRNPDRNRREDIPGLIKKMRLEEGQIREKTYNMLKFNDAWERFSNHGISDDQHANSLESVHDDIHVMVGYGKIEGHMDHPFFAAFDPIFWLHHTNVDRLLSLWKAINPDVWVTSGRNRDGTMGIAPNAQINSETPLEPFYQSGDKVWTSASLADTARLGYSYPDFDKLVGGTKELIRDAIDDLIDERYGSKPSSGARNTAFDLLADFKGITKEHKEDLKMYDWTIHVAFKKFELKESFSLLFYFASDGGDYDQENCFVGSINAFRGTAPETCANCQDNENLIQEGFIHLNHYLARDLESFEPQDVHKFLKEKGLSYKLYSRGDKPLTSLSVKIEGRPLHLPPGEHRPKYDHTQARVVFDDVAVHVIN
Put plainly: Inhibition of mushroom tyrosinase at 15 uM.

In experiment [2] the target is T1, Tyrosinase (Agaricus bisporus). Put plainly: Inhibition of mushroom tyrosinase at 1.7 uM.
Experiment [3] is described as follows: (§1) Decrease of pigmentation in human MNT1 cells at 15 uM after 4 days. The format is functional. Conditions: MNT-1, 96 h.
A further experiment deals with MNT1. Described as §1. The format is functional.
The next experiment has as its target T2, Tyrosinase (Agaricus bisporus, UniProt O42713).
T2 sequence (O42713 whole entry): T1 sequence (whole entry)
Put plainly: Inhibition of mushroom tyrosinase.

Broadly, the inhibition is the drop in the measured response relative to a control, in per cent. For orientation: IC50 means the concentration that inhibits the measured activity by half. Low readings indicate inhibition by little substance, high ones a need for much substance.

As to `C/C(=N\NC(=S)Nc1cccc(C)c1)c1cccc(N)c1`, the inhibition is 52% in experiment [1] and 44% in experiment [2]. Moreover, in experiment [3], the inhibition at 15 µM was 38%.

As to `C/C(=N\NC(=N)SC1CC(=O)N(c2ccc(Cl)cc2)C1=O)c1cccs1` (stereo not drawn), the inhibition was 40% in experiment [1] and 25% in experiment [2]. Besides, the inhibition at 15 µM in experiment [3] amounted to 19%.

With `Cc1ccc(-c2csc(Nc3cc(C)ccn3)n2)cc1`, the inhibition at 15 µM in experiment [3] was 75%.

`Cc1ccccc1NC(=O)CSC(N)=O`: the inhibition in experiment [1] came to 66%; in experiment [2], 47%. Further, the inhibition at 15 µM in experiment [3] was -15%.

Consider `CC(=O)Nc1ccc(Nc2nc(-c3c(C)nc4ccc(C)cn34)cs2)cc1`, for which the inhibition in experiment [1] stood at 46%; in experiment [2], 36%. The Activity result in the experiment on MNT1 was “Toxic”.

As to `COc1ccc2nc(SCC(=O)Nc3ccc4c(c3)OCCO4)[nH]c2c1`, the inhibition turned out to be 43% in experiment [1] and 40% in experiment [2]. Moreover, the inhibition at 15 µM in experiment [3] was determined as 34%.

Turning to `COc1ccc(-c2nc(-c3ccc(O)cc3O)cs2)c(OC)c1`, the IC50 on Tyrosinase is 2 µM. The inhibition at 15 µM in experiment [3] turned out to be 91%.

In the case of `O=C(O)c1cccc(Nc2nc(-c3ccc(O)cc3O)cs2)c1`, in experiment [3], the inhibition at 15 µM is -6%.

Turning to `Cc1cccnc1Nc1nc(-c2ccc(O)cc2O)cs1`, the inhibition at 15 µM in experiment [3] came to 74%.

On to `S=c1[nH]c(-c2ccc3c(c2)OCO3)cn1-c1ccc(Oc2ccccc2)cc1`, for which the inhibition in experiment [1] is 54%; in experiment [2] it was 41%. Further, the inhibition at 15 µM in experiment [3] is 44%.

On to `Oc1ccc(-c2csc(Nc3ccccn3)n2)c(O)c1`, for which the inhibition at 15 µM in experiment [3] came out at 54%.

On to `O=S(=O)(c1ccc(NC(=S)Nc2ccccc2)cc1)N1CCCCC1`, for which the results for the inhibition in experiment [1] and in experiment [2] were 48% and 23%, respectively. Also, the inhibition at 15 µM in experiment [3] turned out to be 56%.

Regarding `Cc1ccnc(Nc2nc(-c3ccc(O)cc3O)cs2)c1`, the IC50 on Tyrosinase came to 0.1 µM. Also, in experiment [3], the inhibition at 15 µM turned out to be 83%.

For `CCCCCOc1ccc(NC2=C(N3CCCC3)C(=O)c3ccccc3C2=O)cc1`, the figures for the inhibition in experiment [1] and in experiment [2] were 51% and 47%, respectively. Further, the inhibition at 15 µM in experiment [3] stood at 48%.

Consider `Cc1ccn2c(-c3csc(Nc4ccccn4)n3)c(C)nc2c1`, for which, in experiment [3], the inhibition at 15 µM was determined as 48%.
